We go through 20 compounds from patent US10011616B2, “Boron-containing small molecules as antiprotozoal1 agents” (MMV MEDICINES FOR MALARIA VENTURE, priority 2015, dated 2018).

Where a name gives a salt, the structure may show the parent alone.

For orientation: IC50 means the concentration that gives 50% inhibition.

Test [1] relates to 3D7 strain of Plasmodium falciparum. The test can be described thus: In vitro activity against 3D7 strain of Plasmodium falciparum ([3H]-hypoxanthine incorporation assay). The class given is cell-based. The settings on record: Erythrocyte, 48 h, P. falciparum 3D7 in human erythrocytes, 2 d, growth inhibition, read-out: IC50: 1 Org. Growth P. falciparum 3D7, 2 d (LPS_00570). The protocol:
In Vitro Activity Against Plasmodium falciparum a) Against 3D7 Strain of Plasmodium falciparum Inhibition of 3D7 strain parasites was assessed using the [^3H]-hypoxanthine incorporation assay (Desjardins, et al. Antimicrob. Agents Chemother. 1979, 16, 710-718). Briefly, parasites were cultured in human erythrocytes (from the Spanish Red Cross blood bank) using RPMI-1640 culture media (Gibco) supplemented with 0.5% Albumax II (Invitrogen), 2% D-sucrose (Sigma-Aldrich), 0.3% glutamine (Sigma-Aldrich), and 5 mM hypoxanthine (Sigma-Aldrich). Cultures were maintained at 37° C. at an atmosphere of 5% O2, 5% CO2, and […]. To assess inhibition, asynchronous parasite cultures with 0.5% parasitemia and 2% hematocrit were exposed to 3-fold serial dilutions of test compounds for 24 hours in 96 well plate cultures (Costar #3894). After 24 hours, [^3H]-hypoxanthine was added, plates were incubated for an additional 24 hours, and parasites were harvested on glass fiber filters (Wallac #1450-421) using a cell harvester 96 (TOMTEC, Perkin Elmer). Filters were dried on scintillator sheets (MeltiLex A, PerkinElmer #1450-441) to determine incorporation of [^3H]-hypoxanthine. Radioactivity was measured using a microbeta counter (Perkin Elmer). Data are normalized using the incorporation of the positive control (infected erythrocytes without drug). IC50 values were determined using Excel and Grafit 5 software. Values were determined from at least three independent experiments, and standard deviations were calculated.

The subject of test [2] is W2 strain of Plasmodium falciparum. The test can be described thus: In vitro activity against W2 strain of Plasmodium falciparum (YOYO-1 flow cytometry). The class given is cell-based. The conditions noted are these: Erythrocyte, 48 h, P. falciparum W2 in human erythrocytes, 2 d, growth inhibition, read-out: IC50: 1 Org. Growth P. falciparum W2, 2 d (LPS_00451). The protocol: In Vitro Activity Against Plasmodium falciparum
b) Against W2 Strain of Plasmodium falciparum
W2 strain P. falciparum parasites were cultured in human erythrocytes and RPMI-1640 culture media with either 10% human serum or 0.5% Albumax serum substitute under 3% O2, 5% CO2, and 92% N2. Parasites synchronized to ring stage by treatments with 5% D-sorbitol were cultured with serial dilutions of benzoxaboroles from 5 to 10 mM stocks in 96 well microplate cultures including 200 μL of media/well, 2% hematocrit, and 1% parasitemia. At the completion of 48 h incubations, when untreated cultures contained new rings, parasites were fixed with 2% formaldehyde for 48 h, and 5 μL aliquots were transferred to another 96 well plate containing 150 μL/well of staining solution (100 mM NH4Cl, 0.1% Triton X-100, and 1 nM YOYO-1 in PBS). Parasites per erythrocyte were then determined by flow cytometry from plots of forward scatter against fluorescence (excitation 488 nm, emission 520 nm) using a FacSort flow cytometer (Beckton Dickinson) equipped with an AMS Loader (Cytek Development). All values were normalized to percent control activity, and IC50s were calculated using the Prism 3.0 program (GRAPHPAD Software). Goodness of fit was assessed by R^2 values, and meaningful dose-response curves yielded R^2 values >0.95.
In general terms: Flow cytometry measures light scatter and fluorescence of single cells or particles in a stream.

With `CSC[C@H](CO)NC(=O)c1cnc(Oc2ccc3c(c2C)B(O)OC3)cn1` [Example 35, (S)—N-(1-hydroxy-3-(methylthio)propan-2-yl)-5-((1-hydroxy-7-methyl-1,3-dihydrobenzo[c][1,2]oxaborol-6-yl)oxy)pyrazine-2-carboxamide], the 50% inhibitory concentration (IC50) in test [1] was determined as 73.7 nM; in test [2], 370 nM.

Consider `Cc1c(Oc2cnc(C(=O)N[C@H](C)C(C)(C)O)cn2)ccc2c1B(O)OC2` [Example 48, (R)—N-(3-hydroxy-3-methylbutan-2-yl)-5-(1-hydroxy-7-methyl-1,3-dihydrobenzo[c][1,2]oxaborol-6-yloxy)pyrazine-2-carboxamide], for which the IC50 in test [1] was 374 nM; in test [2], 265 nM.

For the compound `C=C[C@H](CO)NC(=O)c1cnc(Oc2ccc3c(c2C)B(O)OC3)cn1` [Example 30, (R)-5-(1-hydroxy-7-methyl-1,3-dihydrobenzo[c][1,2]oxaborol-6-yloxy)-N-(1-hydroxybut-3-en-2-yl)pyrazine-2-carboxamide], the concentration for half-maximal inhibition (IC50) stood at 536 nM in test [1] and 317 nM in test [2].

`Cc1c(Oc2cnc(C(=O)N[C@@H](CO)c3ccccc3)cn2)ccc2c1B(O)OC2` [Example 26, (R)—N-(2-hydroxy-1-phenylethyl)-5-(1-hydroxy-7-methyl-1,3-dihydrobenzo[c][1,2]oxaborol-6-yloxy)pyrazine-2-carboxamide]: the IC50 in test [1] is 161 nM; in test [2] it was 103 nM.

Turning to `CCCC1(O)CN(C(=O)c2cnc(Oc3ccc4c(c3C)B(O)OC4)cn2)C1` [Example 56, (3-hydroxy-3-propylazetidin-1-yl) (5-((1-hydroxy-7-methyl-1,3-dihydrobenzo[c][1,2]oxaborol-6-yl)oxy)pyrazin-2-yl)methanone], the results for the half-inhibitory concentration (IC50) in test [1] and in test [2] were 137 nM and 15.9 nM, respectively.

`Cc1c(Oc2cnc(C(=O)N[C@@H](CO)Cc3ccccc3)cn2)ccc2c1B(O)OC2` [Example 27, (R)—N-(1-hydroxy-3-phenylpropan-2-yl)-5-(1-hydroxy-7-methyl-1,3-dihydrobenzo[c][1,2]oxaborol-6-yloxy)pyrazine-2-carboxamide]: the IC50 turned out to be 505 nM in test [1] and 115 nM in test [2].

`Cc1c(Oc2cnc(C(=O)N3CC(O)(C(F)(F)F)C3)cn2)ccc2c1B(O)OC2` [Example 58, (3-hydroxy-3-(trifluoromethyl)azetidin-1-yl) (5-((1-hydroxy-7-methyl-1,3-dihydrobenzo[c][1,2]oxaborol-6-yl)oxy)pyrazin-2-yl)methanone]: the half-inhibitory concentration (IC50) in test [1] came out at 13.9 nM; in test [2] it was 6.6 nM.

For the compound `Cc1c(Oc2cnc(C(=O)N3CCNC[C@H]3CO)cn2)ccc2c1B(O)OC2` [Example 50, (S)-(5-(1-hydroxy-7-methyl-1,3-dihydrobenzo[c][1,2]oxaborol-6-yloxy)pyrazin-2-yl) (2-(hydroxymethyl)piperazin-1-yl)methanone Hydrochloric Acid Salt], the values for the IC50 in test [1] and in test [2] were 171 nM and 98.2 nM, respectively.

As to `Cc1c(Oc2cnc(C(=O)N[C@@H](CO)CS(C)(=O)=O)cn2)ccc2c1B(O)OC2` [Example 36, (S)—N-(1-hydroxy-3-(methylsulfonyl)propan-2-yl)-5-(1-hydroxy-7-methyl-1,3-dihydrobenzo[c][1,2]oxaborol-6-yloxy)pyrazine-2-carboxamide], the concentration for half-maximal inhibition (IC50) in test [1] was 472 nM; in test [2], 201 nM.

As to `Cc1c(Oc2cnc(C(=O)N(C)CCO)cn2)ccc2c1B(O)OC2` [Example 10, 5-(1-hydroxy-7-methyl-1,3-dihydrobenzo[c][1,2]oxaborol-6-yloxy)-N-(2-hydroxyethyl)-N-methylpyrazine-2-carboxamide], the IC50 in test [1] worked out at 437 nM; in test [2], 262 nM.

As to `CCC[C@H](CO)N(C)C(=O)c1cnc(Oc2ccc3c(c2C)B(O)OC3)cn1` [Example 52, (R)-5-(1-hydroxy-7-methyl-1,3-dihydrobenzo[c][1,2]oxaborol-6-yloxy)-N-(1-hydroxypentan-2-yl)-N-methylpyrazine-2-carboxamide], the IC50 turned out to be 252 nM in test [1] and 48.1 nM in test [2].

As for `CCC[C@H](CO)NC(=O)c1cnc(Oc2ccc3c(c2C)B(O)OC3)cn1` [Example 14, (R)-5-(1-hydroxy-7-methyl-1,3-dihydrobenzo[c][1,2]oxaborol-6-yloxy)-N-(1-hydroxypentan-2-yl)pyrazine-2-carboxamide], the values for the IC50 in test [1] and in test [2] were 201 nM and 161 nM, respectively.

Take `Cc1c(Oc2cnc(C(=O)N[C@@H]3CCC[C@@H]3O)cn2)ccc2c1B(O)OC2` (relative stereo) [Example 49, 5-((1-hydroxy-7-methyl-1,3-dihydrobenzo[c][1,2]oxaborol-6-yl)oxy)-N-(cis-2-hydroxycyclopentyl)pyrazine-2-carboxamide]: the IC50 in test [1] was 181 nM; in test [2] it was 292 nM.

For `Cc1c(Oc2cnc(C(=O)N3CC(C)(O)C3)cn2)ccc2c1B(O)OC2` [Example 41, (3-hydroxy-3-methylazetidin-1-yl) (5-((1-hydroxy-7-methyl-1,3-dihydrobenzo[c][1,2]oxaborol-6-yl)oxy)pyrazin-2-yl)methanone], the figures for the IC50 in test [1] and in test [2] were 70.6 nM and 32.6 nM, respectively.

With `Cc1c(Oc2cnc(C(=O)N[C@@H]3CCC[C@H]3O)cn2)ccc2c1B(O)OC2` [Example 42, 5-((1-hydroxy-7-methyl-1,3-dihydrobenzo[c][1,2]oxaborol-6-yl)oxy)-N-((1R,2R)-2-hydroxycyclopentyl)pyrazine-2-carboxamide], the concentration for half-maximal inhibition (IC50) in test [1] was 245 nM; in test [2], 133 nM.

For `COC[C@H](CO)NC(=O)c1cnc(Oc2ccc3c(c2C)B(O)OC3)cn1` [Example 32, (S)—N-(1-hydroxy-3-methoxypropan-2-yl)-5-((1-hydroxy-7-methyl-1,3-dihydrobenzo[c][1,2]oxaborol-6-yl)oxy)pyrazine-2-carboxamide], the IC50 amounted to 796 nM in test [1] and 512 nM in test [2].

In the case of `Cc1c(Oc2cnc(C(=O)N[C@@H](C)C(C)(C)O)cn2)ccc2c1B(O)OC2` [Example 47, (S)—N-(3-hydroxy-3-methylbutan-2-yl)-5-(1-hydroxy-7-methyl-1,3-dihydrobenzo[c][1,2]oxaborol-6-yloxy)pyrazine-2-carboxamide], the concentration for half-maximal inhibition (IC50) came to 327 nM in test [1] and 202 nM in test [2].

For the compound `Cc1c(Oc2cnc(C(=O)NC(C)C(C)O)cn2)ccc2c1B(O)OC2` (stereo not shown) [Example 39, 5-(1-hydroxy-7-methyl-1,3-dihydrobenzo[c][1,2]oxaborol-6-yloxy)-N-(3-hydroxybutan-2-yl)pyrazine-2-carboxamide], the IC50 in test [1] was found to be 1460 nM; in test [2] it was 513 nM.

In the case of `C=C[C@@H](CO)NC(=O)c1cnc(Oc2ccc3c(c2C)B(O)OC3)cn1` [Example 29, (S)-5-(1-hydroxy-7-methyl-1,3-dihydrobenzo[c][1,2]oxaborol-6-yloxy)-N-(1-hydroxybut-3-en-2-yl)pyrazine-2-carboxamide], the IC50 in test [1] amounted to 764 nM; in test [2], 828 nM.

As to `Cc1c(Oc2cnc(C(=O)NC3(CO)CC3)cn2)ccc2c1B(O)OC2` [Example 17, 5-((1-hydroxy-7-methyl-1,3-dihydrobenzo[c][1,2]oxaborol-6-yl)oxy)-N-(1-(hydroxymethyl)cyclopropyl)pyrazine-2-carboxamide], the values for the IC50 in test [1] and in test [2] were 1500 nM and 2010 nM, respectively.
